Laboratory results: PubChem BioAssay (NCI)
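Where inhibition never reached the appropriate level, the endpoint shown equals the highest concentration tested. Otherwise, values were interpolated linearly from a five-concentration, 48-hour dose response in 96-well plates. At the TGI there is no net growth.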

How the values were obtained:
Test in all cases: DTP human tumour cell line panel, 48 h
SN12C renal = system: SN12C renal
CAKI-1 renal = system: CAKI-1 renal
A498 renal = system: A498 renal
OVCAR-4 ovarian = system: OVCAR-4 ovarian
HCT-116 colon = system: HCT-116 colon
SF-295 CNS = system: SF-295 CNS
XF 498 CNS = system: XF 498 CNS
OVCAR-8 ovarian = system: OVCAR-8 ovarian
HOP-62 NSCLC = system: HOP-62 NSCLC
UACC-62 melanoma = system: UACC-62 melanoma
MALME-3M melanoma = system: MALME-3M melanoma
UACC-257 melanoma = system: UACC-257 melanoma
CCRF-CEM leukemia = system: CCRF-CEM leukemia
SK-OV-3 ovarian = system: SK-OV-3 ovarian
OVCAR-5 ovarian = system: OVCAR-5 ovarian
A549 NSCLC = system: A549 NSCLC
NCI-H226 lung = system: NCI-H226 lung
NCI-H522 lung = system: NCI-H522 lung
TK-10 renal = system: TK-10 renal
SNB-19 CNS = system: SNB-19 CNS
SR leukemia = system: SR leukemia
COLO 205 colon = system: COLO 205 colon
KM12 colon = system: KM12 colon
EKVX NSCLC = system: EKVX NSCLC
HL-60(TB) leukemia = system: HL-60(TB) leukemia
IGROV1 ovarian = system: IGROV1 ovarian
SNB-75 CNS = system: SNB-75 CNS
SK-MEL-2 melanoma = system: SK-MEL-2 melanoma
SK-MEL-28 melanoma = system: SK-MEL-28 melanoma
M14 melanoma = system: M14 melanoma
K-562 leukemia = system: K-562 leukemia
RPMI-8226 leukemia = system: RPMI-8226 leukemia
M19-MEL melanoma = system: M19-MEL melanoma
U251 CNS = system: U251 CNS
UO-31 renal = system: UO-31 renal
LXFL 529 NSCLC = system: LXFL 529 NSCLC
NCI-H460 lung = system: NCI-H460 lung
HT29 colon = system: HT29 colon
SW-620 colon = system: SW-620 colon
SNB-78 CNS = system: SNB-78 CNS
786-0 renal = system: 786-0 renal
ACHN renal = system: ACHN renal
OVCAR-3 ovarian = system: OVCAR-3 ovarian
DLD-1 colon = system: DLD-1 colon
SF-268 CNS = system: SF-268 CNS
MOLT-4 leukemia = system: MOLT-4 leukemia
HOP-92 NSCLC = system: HOP-92 NSCLC
NCI-H23 lung = system: NCI-H23 lung
SF-539 CNS = system: SF-539 CNS
HCC-2998 colon = system: HCC-2998 colon
LOX IMVI melanoma = system: LOX IMVI melanoma
RXF 393 renal = system: RXF 393 renal
KM20L2 colon = system: KM20L2 colon
DMS 114 small cell lung = system: DMS 114 small cell lung
DMS 273 small cell lung = system: DMS 273 small cell lung
SK-MEL-5 melanoma = system: SK-MEL-5 melanoma

Compound: O=C1OCCC1(Cc1ccc(Cl)cc1)Cc1ccc(Cl)cc1
- TGI (SN12C renal): > 100 µM
- TGI (CAKI-1 renal): > 100 µM
- TGI (A498 renal): > 100 µM
- TGI (OVCAR-4 ovarian): > 100 µM
- TGI (HCT-116 colon): > 100 µM
- TGI (SF-295 CNS): > 100 µM
- TGI (XF 498 CNS): 43.3 µM
- TGI (OVCAR-8 ovarian): > 100 µM
- TGI (HOP-62 NSCLC): 89.2 µM
- TGI (UACC-62 melanoma): > 100 µM
- TGI (MALME-3M melanoma): > 100 µM
- TGI (UACC-257 melanoma): > 100 µM
- TGI (CCRF-CEM leukemia): > 100 µM
- TGI (SK-OV-3 ovarian): > 100 µM
- TGI (OVCAR-5 ovarian): > 100 µM
- TGI (A549 NSCLC): > 100 µM
- TGI (NCI-H226 lung): > 100 µM
- TGI (NCI-H522 lung): > 100 µM
- TGI (TK-10 renal): > 100 µM
- TGI (SNB-19 CNS): > 100 µM
- TGI (SR leukemia): > 100 µM
- TGI (COLO 205 colon): > 100 µM
- TGI (KM12 colon): > 100 µM
- TGI (EKVX NSCLC): > 100 µM
- TGI (HL-60(TB) leukemia): > 100 µM
- TGI (IGROV1 ovarian): > 100 µM
- TGI (SNB-75 CNS): 56.5 µM
- TGI (SK-MEL-2 melanoma): > 100 µM
- TGI (SK-MEL-28 melanoma): > 100 µM
- TGI (M14 melanoma): > 100 µM
- TGI (K-562 leukemia): > 100 µM
- TGI (RPMI-8226 leukemia): > 100 µM
- TGI (M19-MEL melanoma): > 100 µM
- TGI (U251 CNS): > 100 µM
- TGI (UO-31 renal): > 100 µM
- TGI (LXFL 529 NSCLC): > 100 µM
- TGI (NCI-H460 lung): > 100 µM
- TGI (HT29 colon): > 100 µM
- TGI (SW-620 colon): > 100 µM
- TGI (SNB-78 CNS): > 100 µM
- TGI (786-0 renal): > 100 µM
- TGI (ACHN renal): > 100 µM
- TGI (OVCAR-3 ovarian): > 100 µM
- TGI (DLD-1 colon): > 100 µM
- TGI (SF-268 CNS): > 100 µM
- TGI (MOLT-4 leukemia): > 100 µM
- TGI (HOP-92 NSCLC): 96.3 µM
- TGI (NCI-H23 lung): > 100 µM

Compound: O=S(O)CCCCCSSSCCCCCS(=O)O
- TGI (SN12C renal): > 100 µM
- TGI (A498 renal): > 100 µM
- TGI (OVCAR-4 ovarian): > 100 µM
- TGI (HCT-116 colon): 68.1 µM
- TGI (XF 498 CNS): 36.3 µM
- TGI (SF-539 CNS): > 100 µM
- TGI (HOP-62 NSCLC): > 100 µM
- TGI (UACC-62 melanoma): 55.3 µM
- TGI (MALME-3M melanoma): 94 µM
- TGI (UACC-257 melanoma): > 100 µM
- TGI (CCRF-CEM leukemia): 37.7 µM
- TGI (SK-OV-3 ovarian): > 100 µM
- TGI (HCC-2998 colon): > 100 µM
- TGI (OVCAR-5 ovarian): > 100 µM
- TGI (NCI-H522 lung): 85.1 µM
- TGI (TK-10 renal): 93.8 µM
- TGI (SNB-19 CNS): > 100 µM
- TGI (SR leukemia): 30.3 µM
- TGI (KM12 colon): > 100 µM
- TGI (EKVX NSCLC): > 100 µM
- TGI (HL-60(TB) leukemia): 65 µM
- TGI (SNB-75 CNS): 94.8 µM
- TGI (SK-MEL-2 melanoma): 67.8 µM
- TGI (SK-MEL-28 melanoma): > 100 µM
- TGI (M14 melanoma): > 100 µM
- TGI (LOX IMVI melanoma): 62.4 µM
- TGI (K-562 leukemia): > 100 µM
- TGI (M19-MEL melanoma): > 100 µM
- TGI (U251 CNS): > 100 µM
- TGI (UO-31 renal): > 100 µM
- TGI (RXF 393 renal): 41.8 µM
- TGI (LXFL 529 NSCLC): 27.9 µM
- TGI (KM20L2 colon): > 100 µM
- TGI (NCI-H460 lung): > 100 µM
- TGI (HT29 colon): > 100 µM
- TGI (SNB-78 CNS): > 100 µM
- TGI (ACHN renal): > 100 µM
- TGI (OVCAR-3 ovarian): 78.9 µM
- TGI (DLD-1 colon): > 100 µM
- TGI (SF-268 CNS): > 100 µM
- TGI (MOLT-4 leukemia): 60.8 µM
- TGI (NCI-H23 lung): > 100 µM

Compound: CC(C)NC(C)C(C)c1ccccc1 (stereo unspecified)
- TGI (SN12C renal): > 100 µM
- TGI (CAKI-1 renal): > 100 µM
- TGI (A498 renal): > 100 µM
- TGI (OVCAR-4 ovarian): > 100 µM
- TGI (HCT-116 colon): > 100 µM
- TGI (SF-295 CNS): > 100 µM
- TGI (XF 498 CNS): > 100 µM
- TGI (OVCAR-8 ovarian): > 100 µM
- TGI (SF-539 CNS): > 100 µM
- TGI (DMS 114 small cell lung): > 100 µM
- TGI (HOP-62 NSCLC): > 100 µM
- TGI (UACC-62 melanoma): > 100 µM
- TGI (MALME-3M melanoma): > 100 µM
- TGI (UACC-257 melanoma): > 100 µM
- TGI (CCRF-CEM leukemia): > 100 µM
- TGI (SK-OV-3 ovarian): > 100 µM
- TGI (HCC-2998 colon): > 100 µM
- TGI (A549 NSCLC): > 100 µM
- TGI (NCI-H226 lung): > 100 µM
- TGI (NCI-H522 lung): > 100 µM
- TGI (TK-10 renal): > 100 µM
- TGI (SNB-19 CNS): > 100 µM
- TGI (COLO 205 colon): > 100 µM
- TGI (KM12 colon): > 100 µM
- TGI (EKVX NSCLC): > 100 µM
- TGI (DMS 273 small cell lung): > 100 µM
- TGI (IGROV1 ovarian): > 100 µM
- TGI (SNB-75 CNS): > 100 µM
- TGI (SK-MEL-2 melanoma): > 100 µM
- TGI (SK-MEL-28 melanoma): > 100 µM
- TGI (M14 melanoma): > 100 µM
- TGI (LOX IMVI melanoma): > 100 µM
- TGI (K-562 leukemia): > 100 µM
- TGI (RPMI-8226 leukemia): > 100 µM
- TGI (M19-MEL melanoma): > 100 µM
- TGI (U251 CNS): > 100 µM
- TGI (UO-31 renal): > 100 µM
- TGI (RXF 393 renal): > 100 µM
- TGI (LXFL 529 NSCLC): > 100 µM
- TGI (KM20L2 colon): > 100 µM
- TGI (NCI-H460 lung): > 100 µM
- TGI (HT29 colon): > 100 µM
- TGI (SW-620 colon): > 100 µM
- TGI (786-0 renal): > 100 µM
- TGI (ACHN renal): > 100 µM
- TGI (OVCAR-3 ovarian): > 100 µM
- TGI (SK-MEL-5 melanoma): > 100 µM
- TGI (DLD-1 colon): > 100 µM
- TGI (SF-268 CNS): > 100 µM
- TGI (MOLT-4 leukemia): > 100 µM
- TGI (NCI-H23 lung): > 100 µM
